{"source": "patent US20240197738A1", "about": "“COMPOUND 7AI IN TREATING EWING SARCOMA BY INHIBITING OTUD7A” (The University of North Carolina at Chapel Hill, priority 2021, published 2024)", "key": {"[1]": {"test_system": "Jurkat cells", "assay": "Cell proliferation of Jurkat cells", "type": "cell-based, human", "protocol": "(§1) 2,000 indicated cells were seeded in each well of 96-well plates for MTT assays to monitor cell viability at indicated time periods using a method adapted from https://www.thermofisher.com/us/en/home/references/protocols/cell-culture/mtt-assay-protocol/vybrant-mtt-cell-proliferation-assay-kit.html. Briefly, at indicated time points post-cell seeding, 10 μL MTT solution was added into each well and incubated in the culture incubator (37° C. with 5% CO2) for 4 hrs. Then medium was removed and 100 μL DMSO was added into each well to dissolve the formazan crystal and incubated for 10 min at 37° C. After thorough mixing, absorbance at 540 nm was measured using the BioTek Cytation 5 Cell Imaging reader."}, "[2]": {"target": "T1, His-tagged OTUD7A OTU domain (aa183-449) (Homo sapiens, UniProt Q8TE49)", "T1 construct": "the bacterially produced His-tagged OTUD7A OTU domain (aa183-449) was purified; made in house; host or cells: E. coli BL21 (pET28a vector)", "T1 sequence (Q8TE49 183-449)": "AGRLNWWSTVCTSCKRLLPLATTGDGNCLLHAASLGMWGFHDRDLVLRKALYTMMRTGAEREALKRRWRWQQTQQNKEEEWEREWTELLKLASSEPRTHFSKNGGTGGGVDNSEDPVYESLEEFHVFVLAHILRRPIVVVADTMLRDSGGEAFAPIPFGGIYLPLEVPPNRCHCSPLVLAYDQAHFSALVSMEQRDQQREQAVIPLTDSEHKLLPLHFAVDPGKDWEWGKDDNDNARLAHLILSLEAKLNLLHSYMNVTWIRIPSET", "assay": "Isothermal titration calorimetry (ITC) of 7Ai with OTUD7A OTU domain", "conditions": "bacterially produced His-tagged OTUD7A OTU domain (aa183-449), read-out: binding affinity of 7Ai in vitro (ITC)", "protocol": "ITC measurements were performed using a MicroCal auto-iTC200 calorimeter (MicroCal, LLC) as described previously. Briefly, His-tagged OTU domain of OTUD7A proteins were purified using BL21 strain upon induced by 0.3 mM IPTG when OD600 around 0.6 overnight at 16° C. Then purified human His-tagged OTU domain of OTUD7A was dialyzed against 50 mM HEPES buffer (pH 7.2) with 100 mM NaCl for overnight at 4° C. The concentration of the protein was determined by band intensity in a gel-cod staining SDS-PAGE gel. The ITC assay was carried out at 37 °C. The dialyzed His-OTUD7A-OTU proteins were diluted to 40 μM in the dialysis buffer containing 4% DMSO. Then, 400 μM 7Ai, dissolved in the same dialysis buffer with 4% DMSO (50 mM HEPES buffer (pH 7.2) with 100 mM NaCl) was injected into 0.4 mL of His-OTUD7A-OTU protein in the chamber for every 180 s. The dissociation constants and thermodynamic parameters were determined by using the embedded software package Origin7 (Microcal)."}, "[3]": {"test_system": "EWS-ERG", "assay": "Immunoblot of EWS-ERG protein levels", "type": "cell-based, human", "conditions": "A673 cells with EWS-ERG replacing EWS-FLI1", "protocol": "(§2) Cells were lysed in EBC buffer (50 mM Tris pH 7.5, 120 mM NaCl, 0.5% NP-40) or Triton X-100 buffer (50 mM Tris pH 7.5, 150 mM NaCl, 1% Triton X-100) supplemented with protease inhibitors (Complete Mini, Roche) and phosphatase inhibitors (phosphatase inhibitor cocktail set I and II, Calbiochem). The protein concentrations of whole cell lysates were measured by NanoDrop OneC using the Bio-Rad protein assay reagent as described previously. Equal amounts of whole cell lysates were resolved by SDS-PAGE and immunoblotted with indicated antibodies. For immunoprecipitations analysis, unless specified, 1000 μg lysates were incubated with the indicated antibody (1-2 μg) for 3-4 hr at 4° C. followed by 1 hr incubation with 10 μL Protein A magnetic beads (New England Biolabs). Or 1000 μg lysates containing tagged molecules were incubated with agarose beads coupled antibodies for the specific tag for 3-4 hr at 4° C. For endogenous IPs, incubation of cell lysates with antibodies was extended to overnight. The recovered immuno-complexes were washed five times with NETN buffer (20 mM Tris, pH 8.0, 100 mM NaCl, 1 mM EDTA and 0.5% NP-40) before being resolved by SDS-PAGE and immunoblotted with indicated antibodies."}, "[4]": {"test_system": "FLI1", "assay": "Immunoblot of FLI1 proteins in normal control cells", "type": "cell-based, human", "conditions": "HUVEC and FF cells, doses of 7Ai for 3 days", "protocol": "as §2"}, "[5]": {"target": "T2, OTUD7B (Homo sapiens, UniProt Q6GQQ9)", "T2 construct": "endogenous in cells; host or cells: MHH-ES-1, EWS894", "T2 sequence (Q6GQQ9 whole entry)": "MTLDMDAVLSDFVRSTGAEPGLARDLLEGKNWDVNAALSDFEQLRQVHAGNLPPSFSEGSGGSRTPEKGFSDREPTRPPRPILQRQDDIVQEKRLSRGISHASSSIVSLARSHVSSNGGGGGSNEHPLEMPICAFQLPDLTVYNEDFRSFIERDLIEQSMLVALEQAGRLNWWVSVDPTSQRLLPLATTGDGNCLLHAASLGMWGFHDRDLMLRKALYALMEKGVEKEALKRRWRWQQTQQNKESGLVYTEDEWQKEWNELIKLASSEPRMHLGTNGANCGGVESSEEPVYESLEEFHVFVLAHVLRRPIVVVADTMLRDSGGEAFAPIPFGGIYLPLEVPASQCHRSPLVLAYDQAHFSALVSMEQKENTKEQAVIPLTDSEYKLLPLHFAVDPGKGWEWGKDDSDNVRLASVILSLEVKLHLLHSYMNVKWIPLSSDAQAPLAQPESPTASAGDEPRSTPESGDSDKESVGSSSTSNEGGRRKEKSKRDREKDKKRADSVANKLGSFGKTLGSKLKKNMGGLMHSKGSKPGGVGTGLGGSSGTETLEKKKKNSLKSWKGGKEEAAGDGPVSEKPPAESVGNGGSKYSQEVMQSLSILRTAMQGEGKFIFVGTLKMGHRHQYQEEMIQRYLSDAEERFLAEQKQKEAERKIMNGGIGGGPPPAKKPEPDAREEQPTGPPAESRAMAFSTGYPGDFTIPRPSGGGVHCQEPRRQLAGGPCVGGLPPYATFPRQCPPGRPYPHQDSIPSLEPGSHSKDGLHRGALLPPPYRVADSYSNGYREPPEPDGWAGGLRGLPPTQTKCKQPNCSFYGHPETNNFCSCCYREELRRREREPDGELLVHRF", "assay": "Immunoblot of known OTUD7B substrates (mTORC2, APC/Cdh1)", "type": "cell-based", "conditions": "MHH-ES-1 or EWS894 cells, 12 hrs (FIG. 5E)", "protocol": "as §2"}, "[6]": {"test_system": "EWS-FLI1", "assay": "Immunoblot of EWS-FLI1 protein abundance in cells", "type": "cell-based, human"}, "[7]": {"test_system": "HUVEC cells", "assay": "Cell viability (MTT) assay, HUVEC", "type": "cell-based, human", "conditions": "72 hrs (FIG. 5S)", "protocol": "as §1"}, "[8]": {"test_system": "EWS894 cells", "assay": "Cell viability (MTT) assay, EWS894", "type": "cell-based, human", "conditions": "EWS894, 3-day treatment", "protocol": "as §1"}, "[9]": {"target": "T3, OTUD7A (Homo sapiens, UniProt Q8TE49)", "T3 construct": "endogenous in cells; host or cells: A673 and SK-N-MC", "T3 sequence (Q8TE49 whole entry)": "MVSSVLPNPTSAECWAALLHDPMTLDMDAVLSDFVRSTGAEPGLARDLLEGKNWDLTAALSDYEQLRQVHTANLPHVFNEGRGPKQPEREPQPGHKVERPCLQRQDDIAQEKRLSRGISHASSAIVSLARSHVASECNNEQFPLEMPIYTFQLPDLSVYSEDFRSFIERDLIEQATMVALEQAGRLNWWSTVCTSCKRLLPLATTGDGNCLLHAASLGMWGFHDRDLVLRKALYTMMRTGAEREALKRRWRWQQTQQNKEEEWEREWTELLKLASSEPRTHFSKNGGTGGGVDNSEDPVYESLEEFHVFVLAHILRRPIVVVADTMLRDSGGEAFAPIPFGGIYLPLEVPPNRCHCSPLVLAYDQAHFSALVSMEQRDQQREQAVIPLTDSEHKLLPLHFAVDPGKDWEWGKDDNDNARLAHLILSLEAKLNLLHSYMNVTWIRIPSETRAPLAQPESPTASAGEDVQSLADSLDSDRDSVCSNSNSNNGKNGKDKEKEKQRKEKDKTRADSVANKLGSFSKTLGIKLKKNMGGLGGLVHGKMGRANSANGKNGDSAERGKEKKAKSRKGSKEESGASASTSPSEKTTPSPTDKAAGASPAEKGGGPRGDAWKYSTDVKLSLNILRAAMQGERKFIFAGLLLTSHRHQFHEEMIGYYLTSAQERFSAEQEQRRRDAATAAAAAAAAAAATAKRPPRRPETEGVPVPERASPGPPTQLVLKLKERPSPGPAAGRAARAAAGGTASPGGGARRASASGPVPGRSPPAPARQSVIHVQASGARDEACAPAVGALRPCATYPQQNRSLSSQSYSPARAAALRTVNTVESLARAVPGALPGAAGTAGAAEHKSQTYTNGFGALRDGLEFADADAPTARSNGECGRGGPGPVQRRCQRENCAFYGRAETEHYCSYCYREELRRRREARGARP", "assay": "Immunoblot of OTUD7A protein levels in Ewing cells", "type": "cell-based", "conditions": "A673 and SK-N-MC cells, 10 μM, 12 hrs", "protocol": "as §2\nEach compound was dissolved in DMSO with a concentration of 10 mM. […]"}, "[10]": {"target": "OTUD7A binding to EWS-FLI1 (Homo sapiens, UniProt Q8TE49)", "sequence (Q8TE49 whole entry)": "as above", "assay": "OTUD7A binding to EWS-FLI1 in cells", "type": "cell-based", "protocol": "as §2"}, "[11]": {"test_system": "EWS-FLI1 target genes (NKX2.2, PSPH, LOX, TGFBR2)", "assay": "RT-PCR of EWS-FLI1 downstream target genes", "type": "cell-based, human", "protocol": "Cells were isolated by dissociation with 0.05% Trypsin, followed by media quenching. The cells were spun down at 300×rcf for 5 minutes. The media was aspirated, the pellet was suspended with 1×PBS, and then the cells were spun down again. The PBS was aspirated. RNA extraction was performed with an RNA extraction kit (BioBasic BS584). The final elution step was done with 50 μL of RNAse-free water. The […] with the NanoDrop OneC (Thermo Fisher Scientific). Three biological replicates were performed for RNA extraction. Quartile analysis was done to exclude outliers and significance was determined by one-way ANOVA tests."}, "[12]": {"test_system": "A673 cells expressing EWS-FLI1-3A", "assay": "Growth of A673 cells expressing EWS-FLI1-3A", "type": "cell-based, human", "protocol": "as §1"}, "[13]": {"test_system": "Ewing sarcoma cell", "assay": "Ewing sarcoma cell growth in vitro (effective dose)", "type": "cell-based, human", "protocol": "as §1"}, "[14]": {"test_system": "foreskin fibroblast (FF) cells", "assay": "Cell viability (MTT) assay, foreskin fibroblast", "type": "cell-based, human", "conditions": "72 hrs (FIG. 5S)", "protocol": "as §1"}}, "data": [{"smiles": "Cn1nccc1-c1cc(-c2ccnn2C)n2nc(C(=O)Nc3cnn(Cc4c(Cl)cccc4Cl)c3)cc2n1", "note": "[7Ai]", "values": [{"measurement": "cell proliferation", "setting": "[1]", "value": "reduced cell proliferation of Jurkat cells"}, {"measurement": "Kd", "setting": "[2]", "value": "~1100", "unit": "nM"}, {"measurement": "EWS-ERG protein levels", "setting": "[3]", "value": "reduced EWS-ERG protein levels"}, {"measurement": "FLI1 proteins", "setting": "[4]", "value": "minimal effects on FLI1 proteins"}, {"measurement": "OTUD7B activities (known OTUD7B substrates mTORC2 and APC/Cdh1)", "setting": "[5]", "value": "did not significantly affect OTUD7B activities"}, {"measurement": "EWS-FLI1 protein abundance", "setting": "[6]; A673-teton-shOTUD7A cells", "value": "reduced EWS-FLI1 protein abundance in A673-teton-shOTUD7A"}, {"measurement": "EWS-FLI1 protein abundance", "setting": "[6]; A673 and MHH-ES-1 cells, doses of 7Ai for 3 days", "value": "efficiently reduced EWS-FLI1 protein abundance in both Ewing sarcoma cells"}, {"measurement": "EWS-FLI1 protein levels", "setting": "[6]; A673 and SK-N-MC cells, 10 μM, 12 hrs", "value": "reduced EWS-FLI1 protein levels in both Ewing cells"}, {"measurement": "EWS-FLI1 protein levels, dose dependence", "setting": "[6]; A673 cells, indicated doses, 12 hrs (FIG. 5B)", "value": "reduced EWS-FLI1 protein levels in a dose-dependent manner"}, {"measurement": "EWS-FLI1 protein expression", "setting": "[6]; MHH-ES-1, EWS894 (FIG. 5E, 12 hrs), SK-N-MC and EWS502 cells", "value": "efficiently reduced EWS-FLI1 protein expression"}, {"measurement": "EWS-FLI1 protein abundance", "setting": "[6]; parental A673 cells, 10 μM, 12 hrs (FIG. 5D)", "value": "reduced EWS-FLI1 protein abundance in parental A673"}, {"measurement": "proliferation (cell viability)", "setting": "[7]", "value": "neglectable effects"}, {"measurement": "proliferation (cell viability)", "setting": "[8]", "value": "reduced proliferation"}, {"measurement": "OTUD7A protein levels", "setting": "[9]", "value": "without affecting OTUD7A protein levels"}, {"measurement": "OTUD7A binding to EWS-FLI1", "setting": "[10]", "value": "did not interfere with OTUD7A binding to EWS-FLI1"}, {"measurement": "transcription of EWS-FLI1 target genes NKX2.2 and PSPH", "setting": "[11]; A673 cells (FIGS. 5K-5L)", "value": "reduced transcription of EWS-FLI1 target genes"}, {"measurement": "transcription of genes negatively regulated by EWS-FLI1 (LOX and TGFBR2)", "setting": "[11]; A673 cells (FIGS. 5M-5N)", "value": "increased transcription of genes negatively regulated by EWS-FLI1"}, {"measurement": "cell growth", "setting": "[12]", "value": "failed to significantly suppress growth"}, {"measurement": "effective dose in retarding Ewing sarcoma cell growth in vitro", "setting": "[13]", "value": "about 10 μM"}, {"measurement": "proliferation (cell viability)", "setting": "[14]", "value": "neglectable effects"}]}]}
